In ChEMBL document CHEMBL2029232, “Identification of small-molecule inhibitors of the steroidogenic acute regulatory protein (STARD1) by structure-based design” (Bioorg Med Chem Lett, 2012):
The source made the active and inactive calls. No cut-off for these calls is given here.

Legend:
[1] = Inhibition of 22R-hydroxycholesterol-induced steroidogenesis in mouse MA-10 cells assessed as progesterone synthesis per mg of protein at 10 uM after 2 hrs by RIA; type: cell-based; details: ma-10, 2 h
[2] = target: T1, Steroidogenic acute regulatory protein, mitochondrial (Mus musculus) (UniProt P51557); experiment: Inhibition of STAR in mouse MA-10 cells assessed as inhibition of dbcAMP-stimulated […] at 10 uM after 2 hrs by RIA; type: cell-based
T1 sequence (whole entry): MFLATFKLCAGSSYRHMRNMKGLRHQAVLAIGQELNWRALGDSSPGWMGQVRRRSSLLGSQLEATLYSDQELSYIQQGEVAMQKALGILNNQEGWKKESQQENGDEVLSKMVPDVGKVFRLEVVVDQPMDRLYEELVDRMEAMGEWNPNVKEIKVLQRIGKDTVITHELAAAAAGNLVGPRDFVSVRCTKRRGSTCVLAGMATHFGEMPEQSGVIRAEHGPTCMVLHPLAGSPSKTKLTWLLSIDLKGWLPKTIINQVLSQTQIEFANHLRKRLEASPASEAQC

Row | SMILES | Activity [1] [ng] | inhibition [2]
1 | CC(=O)OCC(=O)[C@H]1CC[C@H]2[C@@H]3CC=C4C[C@@H](O)CC[C@]4(C)[C@H]3CC[C@]12C | 1301 | 50%
2 | C[C@H](CCC(=O)O)[C@H]1CC[C@H]2[C@@H]3CC=C4C[C@@H](O)CC[C@]4(C)[C@H]3CC[C@]12C | – | inactive
3 | CC(=O)O[C@H]1CC[C@@]2(C)C(=CC[C@H]3[C@@H]4CC(O)[C@H]([C@H](C)OC(C)=O)[C@@]4(C)CC[C@@H]32)C1 (stereo partly drawn) | – | inactive
4 | C[C@]12CCC(=O)C=C1CC[C@@H]1[C@@H]2[C@@H](O)C[C@@]2(C)[C@H]1CC[C@]2(O)C(=O)CO | – | inactive
5 | C[C@]12CC[C@H]3[C@@H](CC=C4C[C@@H](O)CC[C@@]43C)[C@@H]1C/C(=C/c1ccc(OC(F)F)cc1)[C@@H]2O | 923 | 50%
6 | C[C@]12CC(O)[C@H]3[C@@H](CCC4=CC(=O)CC[C@@]43C)[C@@H]1CC[C@@H]2C(=O)O (stereo partly drawn) | – | inactive
